Data reported in the CheMixHub viscosity set.
± gives the uncertainty stated by the source.

Assay: xn = mol fraction of the nth substance listed

CCCN + CCN(CC)CC
303.15 K, 101.33 kPa
Conditions	viscosity [mPa·s]
x2 = 0.1027	0.3371 ± 0.0049
x2 = 0.2061	0.3317 ± 0.0049
x2 = 0.3991	0.3268 ± 0.0049
x2 = 0.495	0.3278 ± 0.0049
x2 = 0.6009	0.331 ± 0.0049
x2 = 0.7911	0.3408 ± 0.005
x2 = 0.8925	0.3499 ± 0.005

Oc1ccccc1Cl + CCN(CC)c1ccccc1
viscosity [mPa·s], 101 kPa
Conditions	x1 = 0.1	x1 = 0.2015	x1 = 0.3033	x1 = 0.4011	x1 = 0.497	x1 = 0.6026	x1 = 0.7	x1 = 0.7988	x1 = 0.9003
298 K	2.116 ± 0.054	2.366 ± 0.061	2.722 ± 0.07	3.122 ± 0.08	3.629 ± 0.093	4.195 ± 0.11	4.548 ± 0.12	4.623 ± 0.12	4.12 ± 0.11
303 K	1.858 ± 0.048	2.053 ± 0.053	2.31 ± 0.059	2.589 ± 0.066	2.933 ± 0.075	3.337 ± 0.085	3.533 ± 0.09	3.605 ± 0.092	3.32 ± 0.085
308 K	1.668 ± 0.043	1.818 ± 0.047	2.013 ± 0.052	2.192 ± 0.056	2.432 ± 0.062	2.741 ± 0.07	2.89 ± 0.074	2.938 ± 0.075	2.769 ± 0.071
313 K	1.507 ± 0.039	1.626 ± 0.042	1.775 ± 0.046	1.94 ± 0.05	2.12 ± 0.054	2.318 ± 0.059	2.42 ± 0.062	2.463 ± 0.063	2.361 ± 0.061
318 K	1.37 ± 0.035	1.47 ± 0.038	1.641 ± 0.042	1.701 ± 0.044	1.841 ± 0.047	1.998 ± 0.051	2.086 ± 0.054	2.129 ± 0.055	2.135 ± 0.055

Clc1ccccc1Cl + CCNc1ccccc1
viscosity [mPa·s], 101 kPa
Conditions	303.15 K	308.15 K
x2 = 0.0789	1.286 ± 0.013	1.19 ± 0.013
x2 = 0.1156	1.309 ± 0.013	1.21 ± 0.013
x2 = 0.1659	1.338 ± 0.013	1.234 ± 0.013
x2 = 0.2569	1.391 ± 0.014	1.277 ± 0.013
x2 = 0.3287	1.43 ± 0.014	1.309 ± 0.014
x2 = 0.3968	1.467 ± 0.014	1.339 ± 0.014
x2 = 0.4925	1.516 ± 0.015	1.379 ± 0.014
x2 = 0.5421	1.541 ± 0.015	1.399 ± 0.014
x2 = 0.6325	1.584 ± 0.015	1.434 ± 0.014
x2 = 0.6897	1.611 ± 0.015	1.454 ± 0.015
x2 = 0.7659	1.646 ± 0.015	1.48 ± 0.015
x2 = 0.8425	1.678 ± 0.016	1.508 ± 0.015
x2 = 0.9121	1.709 ± 0.016	1.531 ± 0.015

Oc1ccccc1Cl + CCNc1ccccc1
viscosity [mPa·s], 101 kPa
Conditions	x1 = 0.1027	x1 = 0.2022	x1 = 0.3028	x1 = 0.4011	x1 = 0.5014	x1 = 0.6004	x1 = 0.7024	x1 = 0.7991	x1 = 0.8994
298 K	2.403 ± 0.062	2.916 ± 0.075	3.666 ± 0.094	4.186 ± 0.11	4.763 ± 0.12	5.01 ± 0.13	5.008 ± 0.13	4.647 ± 0.12	4.064 ± 0.1
303 K	2.117 ± 0.054	2.487 ± 0.064	3.051 ± 0.078	3.372 ± 0.086	3.807 ± 0.097	4.028 ± 0.1	3.972 ± 0.1	3.751 ± 0.096	3.335 ± 0.085
308 K	1.852 ± 0.048	2.161 ± 0.055	2.557 ± 0.066	2.828 ± 0.072	3.16 ± 0.081	3.314 ± 0.085	3.299 ± 0.084	3.134 ± 0.08	2.844 ± 0.073
313 K	1.673 ± 0.043	1.885 ± 0.048	2.206 ± 0.057	2.407 ± 0.062	2.662 ± 0.068	2.771 ± 0.071	2.782 ± 0.071	2.67 ± 0.068	2.452 ± 0.063
318 K	1.491 ± 0.038	1.67 ± 0.043	1.925 ± 0.049	2.166 ± 0.056	2.287 ± 0.059	2.372 ± 0.061	2.392 ± 0.061	2.317 ± 0.059	2.137 ± 0.055

C=COC(C)=O + CCO
303.15 K, 101.33 kPa
Conditions	viscosity [mPa·s]
x1 = 0.0998	0.787 ± 0.005
x1 = 0.2001	0.651 ± 0.005
x1 = 0.2995	0.564 ± 0.004
x1 = 0.4007	0.501 ± 0.004
x1 = 0.5002	0.457 ± 0.003
x1 = 0.599	0.425 ± 0.003
x1 = 0.7013	0.402 ± 0.003
x1 = 0.8005	0.386 ± 0.003
x1 = 0.9002	0.378 ± 0.003

CC(C)c1ccccc1 + CCO
viscosity [mPa·s], 101 kPa
Conditions	x1 = 0.0663	x1 = 0.1236	x1 = 0.2015	x1 = 0.2971	x1 = 0.4052	x1 = 0.5656	x1 = 0.7293
298.15 K	1.036 ± 0.007	0.982 ± 0.007	0.926 ± 0.008	0.878 ± 0.009	0.836 ± 0.01	0.796 ± 0.013	0.764 ± 0.015
308.15 K	0.897 ± 0.006	0.86 ± 0.006	0.81 ± 0.007	0.753 ± 0.008	0.7 ± 0.009	0.653 ± 0.01	0.64 ± 0.013

CCC(CC)CO + CCO
298.15 K, 101.33 kPa
Conditions	viscosity [mPa·s]
x2 = 0.1055	5.144 ± 0.045
x2 = 0.2003	4.502 ± 0.041
x2 = 0.3067	3.844 ± 0.036
x2 = 0.4044	3.291 ± 0.032
x2 = 0.503	2.777 ± 0.029
x2 = 0.6076	2.35 ± 0.026
x2 = 0.6966	1.972 ± 0.023
x2 = 0.8051	1.617 ± 0.021
x2 = 0.9036	1.345 ± 0.019
